From patent US11395490B2, “Herbicidal composition” (SYNGENTA CROP PROTECTION, LLC, priority 2005, dated 2022)

What was measured:
Format in all cases: in vivo
Conditions in all cases: 21 days after treatment
[1] = system: Euphorbia heterophylla (EPHHL); test: Post-emergence test, Euphorbia heterophylla
Text: (§1) The herbicidal action to be expected, We, for a given combination of two herbicides can be calculated as follows (see COLBY, S. R. “Calculating synergistic and antagonistic response of herbicide combinations”. Weeds 15, pages 20-22; 1967): We=X+[Y·(100−X)/100] wherein: X=% herbicidal action in the case of treatment with active ingredient (A) using an application rate of p kg per hectare, in comparison with untreated control (=0%). Y=% herbicidal action in the case of treatment with active ingredient (B) using an application rate of q kg per hectare, in comparison with untreated control. We=expected herbicidal action (% herbicidal action in comparison with untreated control) after treatment with active ingredient (A) and active ingredient (B) at a rate of application of p+q kg of active ingredient per hectare. If the action actually observed is greater than the expected value We, there is a synergistic effect. Trial Description, Pre-Emergence Test: Monocotyledonous and dicotyledonous test plants are sown in standard soil in plastics pots. The plants tested were: Maize (ZEAMX), Ipomea purpurea (PHBPU), Euphorbia heterophylla (EPHHL), Panicum millenacearum (PANMI). Immediately after sowing, the test compounds in aqueous suspension are applied by spraying (200 litres of water/ha). (A) was formulated as a SC50, and (B1), (B2) and (B3) were formulated as WP25; 1% adjuvant crop oil concentrate (Agridex) (v/v) was added to all treatments. The compounds were applied alone and in combination as tank mixtures. The rates of application depend on the optimum concentrations determined under field conditions and greenhouse conditions. The test plants are then cultivated in a greenhouse under optimum conditions. Evaluation of the tests is made after 21 days (% action, 100%=plants have died, 0%=no phytotoxic action).
(§2) Trial Description Post-Emergence Test: The test plants are raised in plastics pots under greenhouse conditions as far as the 2- to 3-leaf stage. A standard soil is used as the cultivation substrate. The plants tested were: Maize (ZEAMX), Ipomea purpurea (PHBPU), Sorghum vulgare (SORVU), Euphorbia heterophylla (EPHHL), Panicum millenacearum (PANMI). At the 2- to 3-leaf stage, the herbicides are applied individually and as mixtures to the test plants. The test compounds are applied in the form of an aqueous suspension in 200 litres of water/ha. (A) was formulated as a SC50, and (B1), (B2) and (B3) were formulated as WP25; 1% adjuvant crop oil concentrate (Agridex) (v/v) was added to all treatments. The compounds were applied alone and in combination as tank mixtures. The rates of application depend on the optimum concentrations determined under field conditions and greenhouse conditions. Evaluation of the tests is made after 21 days (% action, 100%=plants have died, 0%=no phytotoxic action).

[2] = system: Panicum millenacearum (PANMI); test: Pre-emergence test, Panicum millenacearum
Text: as §1

[3] = system: Panicum millenacearum (PANMI); test: Post-emergence test, Panicum millenacearum
Text: as §1, §2

[4] = system: Ipomea purpurea (PHBPU); test: Pre-emergence test, Ipomea purpurea
Text: as §1

[5] = system: Maize (ZEAMX); test: Post-emergence test, Maize
Text: as §1, §2

[6] = system: Maize (ZEAMX); test: Pre-emergence test, Maize
Text: as §1

[7] = system: Ipomea purpurea (PHBPU); test: Post-emergence test, Ipomea purpurea
Text: as §1, §2

[8] = system: Euphorbia heterophylla (EPHHL); test: Pre-emergence test, Euphorbia heterophylla
Text: as §1

[9] = system: Sorghum vulgare (SORVU); test: Post-emergence test, Sorghum vulgare
Text: as §1, §2

COCCOCc1nc(C(F)(F)F)ccc1C(=O)C1C(=O)C2CCC(C2)C1=O (stereo not drawn) [(B1), 4-hydroxy-3-[[2-[(2-methoxyethoxy)methyl]-6-(trifluoromethyl)-3-pyridinyl]carbonyl]-bicyclo[3.2.1]oct-3-en-2-one]
Observed plant damage EPHHL ([1]; rate 18.75 g/ha): 65%
Observed plant damage EPHHL ([1]; rate 37.5 g/ha): 80%
Observed plant damage EPHHL ([1]; rate 75 g/ha): 90%
Observed plant damage EPHHL ([1]; rate 150 g/ha): 90%
Observed plant damage EPHHL ([1]; rate 300 g/ha): 98%
Observed plant damage PANMI ([2]; rate 18.75 g/ha): 15%
Observed plant damage PANMI ([2]; rate 37.5 g/ha): 65%
Observed plant damage PANMI ([2]; rate 75 g/ha): 80%
Observed plant damage PANMI ([2]; rate 150 g/ha): 100%
Observed plant damage PANMI ([2]; rate 300 g/ha): 100%
Observed plant damage PANMI ([3]; rate 18.75 g/ha): 60%
Observed plant damage PANMI ([3]; rate 37.5 g/ha): 70%
Observed plant damage PANMI ([3]; rate 75 g/ha): 75%
Observed plant damage PANMI ([3]; rate 150 g/ha): 70%
Observed plant damage PANMI ([3]; rate 300 g/ha): 90%
Observed plant damage PHBPU ([4]; rate 18.75 g/ha): 0%
Observed plant damage PHBPU ([4]; rate 37.5 g/ha): 0%
Observed plant damage PHBPU ([4]; rate 75 g/ha): 0%
Observed plant damage PHBPU ([4]; rate 150 g/ha): 0%
Observed plant damage PHBPU ([4]; rate 300 g/ha): 85%
Observed plant damage ZEAMX ([5]; rate 18.75 g/ha): 0%
Observed plant damage ZEAMX ([5]; rate 37.5 g/ha): 0%
Observed plant damage ZEAMX ([5]; rate 75 g/ha): 0%
Observed plant damage ZEAMX ([5]; rate 150 g/ha): 0%
Observed plant damage ZEAMX ([5]; rate 300 g/ha): 0%
Observed plant damage ZEAMX ([6]; rate 18.75 g/ha): 0%
Observed plant damage ZEAMX ([6]; rate 37.5 g/ha): 0%
Observed plant damage ZEAMX ([6]; rate 75 g/ha): 0%
Observed plant damage ZEAMX ([6]; rate 150 g/ha): 0%
Observed plant damage ZEAMX ([6]; rate 300 g/ha): 0%
Observed plant damage PHBPU ([7]; rate 18.75 g/ha): 30%
Observed plant damage PHBPU ([7]; rate 37.5 g/ha): 50%
Observed plant damage PHBPU ([7]; rate 75 g/ha): 55%
Observed plant damage PHBPU ([7]; rate 150 g/ha): 70%
Observed plant damage PHBPU ([7]; rate 300 g/ha): 70%
Observed plant damage EPHHL ([8]; rate 18.75 g/ha): 0%
Observed plant damage EPHHL ([8]; rate 37.5 g/ha): 0%
Observed plant damage EPHHL ([8]; rate 75 g/ha): 75%
Observed plant damage EPHHL ([8]; rate 150 g/ha): 75%
Observed plant damage EPHHL ([8]; rate 300 g/ha): 100%
Observed plant damage SORVU ([9]; rate 18.75 g/ha): 0%
Observed plant damage SORVU ([9]; rate 37.5 g/ha): 0%
Observed plant damage SORVU ([9]; rate 75 g/ha): 0%
Observed plant damage SORVU ([9]; rate 150 g/ha): 10%
Observed plant damage SORVU ([9]; rate 300 g/ha): 35%

Cc1c(C(=O)c2cnn(C)c2O)ccc(S(C)(=O)=O)c1C1=NOCC1 [(B3), topramezone]
Observed plant damage EPHHL ([1]; rate 5 g/ha): 0%
Observed plant damage EPHHL ([1]; rate 10 g/ha): 20%
Observed plant damage EPHHL ([1]; rate 20 g/ha): 50%
Observed plant damage EPHHL ([1]; rate 40 g/ha): 65%
Observed plant damage EPHHL ([1]; rate 80 g/ha): 90%
Observed plant damage PANMI ([2]; rate 5 g/ha): 0%
Observed plant damage PANMI ([2]; rate 10 g/ha): 0%
Observed plant damage PANMI ([2]; rate 20 g/ha): 0%
Observed plant damage PANMI ([2]; rate 40 g/ha): 0%
Observed plant damage PANMI ([2]; rate 80 g/ha): 98%
Observed plant damage PANMI ([3]; rate 5 g/ha): 0%
Observed plant damage PANMI ([3]; rate 10 g/ha): 20%
Observed plant damage PANMI ([3]; rate 20 g/ha): 80%
Observed plant damage PANMI ([3]; rate 40 g/ha): 90%
Observed plant damage PANMI ([3]; rate 80 g/ha): 90%
Observed plant damage PHBPU ([4]; rate 5 g/ha): 0%
Observed plant damage PHBPU ([4]; rate 10 g/ha): 0%
Observed plant damage PHBPU ([4]; rate 20 g/ha): 0%
Observed plant damage PHBPU ([4]; rate 40 g/ha): 0%
Observed plant damage PHBPU ([4]; rate 80 g/ha): 55%
Observed plant damage ZEAMX ([5]; rate 5 g/ha): 0%
Observed plant damage ZEAMX ([5]; rate 10 g/ha): 0%
Observed plant damage ZEAMX ([5]; rate 20 g/ha): 0%
Observed plant damage ZEAMX ([5]; rate 40 g/ha): 0%
Observed plant damage ZEAMX ([5]; rate 80 g/ha): 20%
Observed plant damage ZEAMX ([6]; rate 5 g/ha): 0%
Observed plant damage ZEAMX ([6]; rate 10 g/ha): 0%
Observed plant damage ZEAMX ([6]; rate 20 g/ha): 0%
Observed plant damage ZEAMX ([6]; rate 40 g/ha): 0%
Observed plant damage ZEAMX ([6]; rate 80 g/ha): 0%
Observed plant damage PHBPU ([7]; rate 5 g/ha): 35%
Observed plant damage PHBPU ([7]; rate 10 g/ha): 55%
Observed plant damage PHBPU ([7]; rate 20 g/ha): 20%
Observed plant damage PHBPU ([7]; rate 40 g/ha): 25%
Observed plant damage PHBPU ([7]; rate 80 g/ha): 80%
Observed plant damage EPHHL ([8]; rate 5 g/ha): 0%
Observed plant damage EPHHL ([8]; rate 10 g/ha): 0%
Observed plant damage EPHHL ([8]; rate 20 g/ha): 0%
Observed plant damage EPHHL ([8]; rate 40 g/ha): 0%
Observed plant damage EPHHL ([8]; rate 80 g/ha): 30%
Observed plant damage SORVU ([9]; rate 5 g/ha): 0%
Observed plant damage SORVU ([9]; rate 10 g/ha): 0%
Observed plant damage SORVU ([9]; rate 20 g/ha): 0%
Observed plant damage SORVU ([9]; rate 40 g/ha): 0%
Observed plant damage SORVU ([9]; rate 80 g/ha): 0%
